Reference: PubChem BioAssay AID248 (DTP/NCI, 2004)
Where “and” joins values, the source holds several entries; their conditions need not be identical. Equal values may be shown once. Toxic doses and inconclusive results are not listed. Cut-off read from the data, not from the text of the source: active = T/C of 150% or more; inactive = T/C below 125%.

Tested on: L1210 leukemia ip in BDF1 mice, survival T/C
Test: NCI In Vivo Anticancer Drug Screen. Data for tumor model L1210 Leukemia (intraperitoneal) in B6D2F1 (BDF1) mice
Settings: endpoint: mean survival time, higher = longer survival
Procedure, shortened: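 Tumor was transplanted into mice, which were then dosed with test compound or vehicle alone. Survival was recorded for each group, and the treated figure was expressed relative to the control figure.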

[1] = dose: 100.0 mg/kg/injection, schedule: Q04DX003 (ip), vehicle: saline
[2] = dose: 200.0 mg/kg/injection, schedule: Q04DX003 (ip), vehicle: saline
[3] = dose: 200.0 mg/kg/injection, schedule: Q04DX003 (ip), vehicle: Klucel (hydroxypropylcellulose) (HPC)
[4] = dose: 400.0 mg/kg/injection, schedule: Q04DX003 (ip), vehicle: Klucel (hydroxypropylcellulose) (HPC)
[5] = dose: 50.0 mg/kg/injection, schedule: Q04DX003 (ip), vehicle: saline with Tween-80
[6] = dose: 100.0 mg/kg/injection, schedule: Q01DX001 (ip), vehicle: saline with Tween-80
[7] = dose: 100.0 mg/kg/injection, schedule: Q04DX003 (ip), vehicle: saline with Tween-80
[8] = dose: 200.0 mg/kg/injection, schedule: Q01DX001 (ip), vehicle: saline with Tween-80
[9] = dose: 200.0 mg/kg/injection, schedule: Q04DX003 (ip), vehicle: saline with Tween-80
[10] = dose: 100.0 mg/kg/injection, schedule: Q04DX003 (ip), vehicle: Klucel (hydroxypropylcellulose) (HPC)
[11] = dose: 25.0 mg/kg/injection, schedule: Q04DX003 (ip), vehicle: saline with Tween-80
[12] = dose: 100.0 mg/kg/injection, schedule: Q01DX001 (ip), vehicle: Klucel (hydroxypropylcellulose) (HPC)
[13] = dose: 200.0 mg/kg/injection, schedule: Q01DX001 (ip), vehicle: Klucel (hydroxypropylcellulose) (HPC)
[14] = dose: 400.0 mg/kg/injection, schedule: Q01DX001 (ip), vehicle: Klucel (hydroxypropylcellulose) (HPC)
[15] = dose: 400.0 mg/kg/injection, schedule: Q04DX003 (ip), vehicle: saline with Tween-80
[16] = dose: 25.0 mg/kg/injection, schedule: Q04DX003 (ip), vehicle: Klucel (hydroxypropylcellulose) (HPC)

Measured: T/C

ClCCOCOCCCl
inactive: dose: 20.0 mg/kg/injection, schedule: Q04DX003 (ip), vehicle: Klucel (hydroxypropylcellulose) (HPC) 104 % of control | dose: 40.0 mg/kg/injection, schedule: Q04DX003 (ip), vehicle: Klucel (hydroxypropylcellulose) (HPC) 104 % of control | dose: 80.0 mg/kg/injection, schedule: Q04DX003 (ip), vehicle: Klucel (hydroxypropylcellulose) (HPC) 101 % of control

O=C(C[n+]1cccc2ccccc21)c1ccc(-c2ccc(C(=O)C[n+]3cccc4ccccc43)cc2)cc1
inactive: dose: 0.13 mg/kg/injection, schedule: Q04DX003 (ip), vehicle: saline 103 % of control | dose: 0.25 mg/kg/injection, schedule: Q04DX003 (ip), vehicle: saline 103 % of control | dose: 0.5 mg/kg/injection, schedule: Q04DX003 (ip), vehicle: saline 102 % of control

O=C(O)/C(=C\CCC/C=C(\CCO)C(=O)O)CCO
inactive: dose: 100.0 mg/kg/injection, schedule: Q01DX001 (ip), vehicle: DMSO 100 % of control | dose: 100.0 mg/kg/injection, schedule: Q01DX009 (ip), vehicle: DMSO 99 % of control | dose: 200.0 mg/kg/injection, schedule: Q01DX001 (ip), vehicle: DMSO 97 % of control | dose: 200.0 mg/kg/injection, schedule: Q01DX009 (ip), vehicle: DMSO 99 % of control | dose: 400.0 mg/kg/injection, schedule: Q01DX001 (ip), vehicle: DMSO 102 % of control | dose: 400.0 mg/kg/injection, schedule: Q01DX009 (ip), vehicle: DMSO 91 % of control

CC1=CCS(=O)(=O)C1
inactive: [1] 103 % of control | [2] 101 % of control

COC(=O)C1=C2Nc3ccccc3C23CCN2CC4(CC5CC67CCOC6CCN6CCC8(c9cccc(OC)c9N(C4)C58O)C67)C4OCCC4(C1)C23 (configuration not stated)
inactive: [3] 88 % of control | [4] 93 % of control

Nc1ccnc2snnc12
inactive: dose: 50.0 mg/kg/injection, schedule: Q01DX009 (ip), vehicle: saline with Tween-80 96 % of control | [5] 93 % of control | [6] 111 % of control | dose: 100.0 mg/kg/injection, schedule: Q01DX009 (ip), vehicle: saline with Tween-80 90 % of control | [7] 102 % of control | [8] 98 % of control | dose: 200.0 mg/kg/injection, schedule: Q01DX009 (ip), vehicle: saline with Tween-80 95 % of control | [9] 107 % of control

BrCCCC1CCCCC1
inactive: dose: 100.0 mg/kg/injection, schedule: Q01DX009 (ip), vehicle: Klucel (hydroxypropylcellulose) (HPC) 104 % of control | [10] 100 % of control | dose: 200.0 mg/kg/injection, schedule: Q01DX009 (ip), vehicle: Klucel (hydroxypropylcellulose) (HPC) 97 % of control | [3] 104 % of control | dose: 400.0 mg/kg/injection, schedule: Q01DX009 (ip), vehicle: Klucel (hydroxypropylcellulose) (HPC) 92 % of control | [4] 105 % of control

CCCCCCCCCCCCSC(=N)N
inactive: dose: 12.5 mg/kg/injection, schedule: Q01DX009 (ip), vehicle: acetone 103 % of control | dose: 12.5 mg/kg/injection, schedule: Q04DX003 (ip), vehicle: saline with Tween-80 98 % of control | dose: 25.0 mg/kg/injection, schedule: Q01DX009 (ip), vehicle: acetone 95 % of control | [11] 100 % of control | dose: 25.0 mg/kg/injection, schedule: Q04DX003 (ip), vehicle: saline 104 % of control | dose: 35.0 mg/kg/injection, schedule: Q04DX003 (ip), vehicle: saline 89 % of control | [5] 95 % of control | dose: 50.0 mg/kg/injection, schedule: Q04DX003 (ip), vehicle: saline 91 % of control | dose: 75.0 mg/kg/injection, schedule: Q04DX003 (ip), vehicle: saline 89 % of control | [1] 94 % of control and 95 % of control | dose: 115.0 mg/kg/injection, schedule: Q04DX003 (ip), vehicle: saline 97 % of control

O=C(COc1ccc(Cl)c(Cl)c1)N(Cc1ccccc1)Cc1ccc[n+](Cc2ccc(S(=O)(=O)F)cc2)c1
inactive: [7] 102 % of control | [9] 96 % of control

NNC(=S)N/N=C/c1ccccc1
inactive: [12] 93 % of control | [13] 93 % of control | [14] 100 % of control

Cc1cc(C(=O)C(=O)OC(c2ccccc2)c2ccccc2)c(CN2C(=O)c3ccccc3C2=O)c(=O)n1C
inactive: dose: 25.0 mg/kg/injection, schedule: Q04DX002 (ip), vehicle: saline with Tween-80 101 % of control | dose: 50.0 mg/kg/injection, schedule: Q04DX002 (ip), vehicle: saline with Tween-80 108 % of control | dose: 100.0 mg/kg/injection, schedule: Q04DX002 (ip), vehicle: saline with Tween-80 108 % of control

O=C1c2ccccc2CC(Br)c2ccccc21 (configuration not stated)
inactive: [12] 95 % of control | [13] 100 % of control | [14] 100 % of control

O=C(O)c1ccc(Nc2ccccc2)cc1
inactive: [7] 103 % of control | [9] 90 % of control | [15] 90 % of control

CC1C(c2ccccc2)OCN1CN1C(=O)C=CC1=O (configuration not stated) (tested in a mixture with another compound)
inactive: [7] 90 % of control

CCN1CC1
inactive: dose: 6.25 mg/kg/injection, schedule: Q01DX009 (ip), vehicle: Klucel (hydroxypropylcellulose) (HPC) 98 % of control | dose: 6.25 mg/kg/injection, schedule: Q04DX003 (ip), vehicle: Klucel (hydroxypropylcellulose) (HPC) 96 % of control | dose: 12.5 mg/kg/injection, schedule: Q01DX009 (ip), vehicle: Klucel (hydroxypropylcellulose) (HPC) 107 % of control | dose: 12.5 mg/kg/injection, schedule: Q04DX003 (ip), vehicle: Klucel (hydroxypropylcellulose) (HPC) 90 % of control | [16] 109 % of control

CCOC(=O)C(COS(C)(=O)=O)NS(=O)(=O)c1ccc(C)cc1 (configuration not stated)
inactive: [12] 98 % of control | [13] 104 % of control | [14] 95 % of control

OC(C(F)(F)F)C(F)(F)Cl (configuration not stated)
inactive: dose: 100.0 mg/kg/injection, schedule: Q01DX001 (ip), vehicle: saline 104 % of control

COc1ccc(NC(=O)Nc2cc([N+](=O)[O-])ccc2F)cc1
inactive: [10] 89 % of control | [3] 89 % of control | [4] 88 % of control

CCOc1nsc(OCC)n1
inactive: dose: 75.0 mg/kg/injection, schedule: Q01DX009 (ip), vehicle: other 103 % of control | [1] 98 % of control | dose: 150.0 mg/kg/injection, schedule: Q01DX009 (ip), vehicle: other 107 % of control | [2] 101 % of control | dose: 300.0 mg/kg/injection, schedule: Q01DX009 (ip), vehicle: other 93 % of control | dose: 400.0 mg/kg/injection, schedule: Q04DX003 (ip), vehicle: saline 103 % of control

O=C(O)C(Cc1ccccc1)N1C(=O)C2C3CCC(C3)C2C1=O (configuration not stated)
inactive: [11] 93 % of control | [5] 93 % of control | [7] 100 % of control and 107 % of control | [9] 110 % of control | [15] 103 % of control

O=S(=O)(F)c1cccc2nsnc12
inactive: [16] 95 % of control | dose: 50.0 mg/kg/injection, schedule: Q04DX003 (ip), vehicle: Klucel (hydroxypropylcellulose) (HPC) 101 % of control | [10] 87 % of control | dose: 100.0 mg/kg/injection, schedule: Q04DX003 (ip), vehicle: carboxymethylcellulose (CMC) 93 % of control | dose: 400.0 mg/kg/injection, schedule: Q04DX003 (ip), vehicle: carboxymethylcellulose (CMC) 104 % of control

CC(=O)Nc1ccc(CCc2nc(N)nc(Cl)c2-c2ccc(Cl)cc2)cc1
inactive: dose: 75.0 mg/kg/injection, schedule: Q01DX001 (ip), vehicle: saline 92 % of control | dose: 150.0 mg/kg/injection, schedule: Q01DX001 (ip), vehicle: saline 87 % of control | dose: 300.0 mg/kg/injection, schedule: Q01DX001 (ip), vehicle: saline 90 % of control

CC(C)(C)NC(=O)C(Cl)Cl
inactive: [6] 88 % of control | [8] 98 % of control

Nc1ccc2ccccc2c1S(=O)(=O)O
inactive: [7] 98 % of control | [9] 95 % of control | [15] 98 % of control
